Test results published in patent publication US20240270762A1, “PENICILLIN-BINDING PROTEIN INHIBITORS” (priority 2021, published 2024).
pEC50: −log10 of the molar value. Converted amounts (≈) assume the structure as drawn.

How the values were obtained:
B. pseudomallei Bp82 = test: microbe, parasite or virus in culture; assay type: cell-based; settings: Burkholderia pseudomallei, BP82, read-out: Minimum inhibitory concentration, B. pseudomallei Bp82
K. pneumoniae 848844 = test: microbe, parasite or virus in culture; assay type: cell-based; settings: Klebsiella pneumoniae, 848844, read-out: MIC K. pneumoniae 848844
[1] = tested on: P. aeruginosa (ΔmexAB-oprM); test: Broth microdilution MIC in CAMHB; assay type: cell-based; settings: Pseudomonas aeruginosa; read-out: MIC P. aeruginosa ΔmexAB-oprM
A. baumannii ATCC 19606 = test: microbe, parasite or virus in culture; assay type: cell-based; settings: Acinetobacter baumannii, ATCC19606, read-out: MIC, A. baumannii ATCC 19606
P. aeruginosa ATCC 35151 = test: microbe, parasite or virus in culture; assay type: cell-based; settings: Pseudomonas aeruginosa, ATCC35151, read-out: MIC P. aeruginosa ATCC 35151
E. coli AG100 = test: microbe, parasite or virus in culture; assay type: cell-based; settings: Escherichia coli, AG100, read-out: MIC E. coli AG100
K. pneumoniae UMM = test: microbe, parasite or virus in culture; assay type: cell-based; settings: Klebsiella pneumoniae, read-out: MIC K. pneumoniae UMM
[2] = molecular target: T1, PBP2 from Neisseria gonorrhoeae (FA19) (Neisseria gonorrhoeae, UniProt P08149); test: Bocillin-FL fluorescence polarization competition binding, N. gonorrhoeae PBP2; settings: fluorescence polarization competition binding assay using Bocillin-FL, read-out: N. gonorrhoeae PBP2 Potency
T1 construct: made in house
Method in brief: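 Fluorescence polarization competition with 0.1 μM Bocillin-FL (fluorescent penicillin V) against 0.25 μM N. gonorrhoeae FA19 PBP2 in 50 mM Hepes pH 8.0, 300 mM NaCl, 10% glycerol. Boronic acid inhibitors were preincubated with PBP, then Bocillin-FL was added and FP read (490/520 nm) up to 60 min. EC50 is the concentration halving PBP-bound Bocillin-FL.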

E. coli D22 = test: microbe, parasite or virus in culture; assay type: cell-based; settings: Escherichia coli, D22, read-out: MIC E. coli D22
E. coli ATCC 25922 = test: microbe, parasite or virus in culture; assay type: cell-based; settings: Escherichia coli, ATCC25922, read-out: MIC E. coli 25922
P. aeruginosa ATCC 27853 = test: microbe, parasite or virus in culture; assay type: cell-based; settings: Pseudomonas aeruginosa, ATCC27853, read-out: MIC P. aeruginosa ATCC 27853
E. coli AG100A = test: Broth microdilution MIC in CAMHB; assay type: cell-based; settings: Escherichia coli, read-out: MIC E. coli AG100A
E. coli 901C = test: microbe, parasite or virus in culture; assay type: cell-based; settings: Escherichia coli, read-out: MIC E. coli 901C
K. pneumoniae SI-117 = test: microbe, parasite or virus in culture; assay type: cell-based; settings: Klebsiella pneumoniae, SI117, read-out: MIC K. pneumoniae SI-117

T1 sequence (P08149 whole entry): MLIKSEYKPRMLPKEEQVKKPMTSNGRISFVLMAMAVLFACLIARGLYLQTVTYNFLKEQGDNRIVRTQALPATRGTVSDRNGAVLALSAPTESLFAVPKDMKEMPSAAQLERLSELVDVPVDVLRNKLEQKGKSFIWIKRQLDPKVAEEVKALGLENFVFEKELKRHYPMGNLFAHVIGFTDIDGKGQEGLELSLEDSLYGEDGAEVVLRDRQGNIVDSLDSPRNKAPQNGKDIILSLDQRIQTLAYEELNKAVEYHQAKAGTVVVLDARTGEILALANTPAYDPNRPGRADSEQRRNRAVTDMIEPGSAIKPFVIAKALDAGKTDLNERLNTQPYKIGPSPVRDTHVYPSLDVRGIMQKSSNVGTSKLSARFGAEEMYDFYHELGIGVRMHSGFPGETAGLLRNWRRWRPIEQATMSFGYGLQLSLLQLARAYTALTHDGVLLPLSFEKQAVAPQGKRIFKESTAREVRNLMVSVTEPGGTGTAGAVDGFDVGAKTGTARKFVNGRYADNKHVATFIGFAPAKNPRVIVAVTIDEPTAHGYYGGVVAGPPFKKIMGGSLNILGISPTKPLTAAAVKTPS

## O=C(NCCN1CCN(C(=O)N[C@@H](C(=O)N[C@H]2Cc3ccc(F)c(C(=O)O)c3OB2O)c2cc(F)c(O)c(O)c2Cl)C1=O)Nc1ccc(O)cc1 [Example 279, (R)-3-((R)-2-(2-chloro-5-fluoro-3,4-dihydroxyphenyl)-2-(3-(2-(3-(4-hydroxyphenyl)ureido)ethyl)-2-oxoimidazolidine-1-carboxamido)acetamido)-7-fluoro-2-hydroxy-3,4-dihydro-2H-benzo[e][1,2]oxaborinine-8-carboxylic acid]
B. pseudomallei Bp82
  MIC: < 1 µg/mL

## O=C(O)c1cccc2c1OB(O)[C@@H](NC(=O)C(NC(=O)N1CCN(CC(F)(F)F)C(=O)C1=O)c1ccc(P(=O)(O)O)cc1)C2 (stereo partly drawn) [Example 4, (3R)-3-(2-(2,3-dioxo-4-(2,2,2-trifluoroethyl)piperazine-1-carboxamido)-2-(4-phosphonophenyl)acetamido)-2-hydroxy-3,4-dihydro-2H-benzo[e][1,2]oxaborinine-8-carboxylic acid]
K. pneumoniae 848844
  MIC: > 128 µg/mL
[1]
  MIC: 32 to 64 µg/mL (≈ 49.8 to 99.7 µM)
A. baumannii ATCC 19606
  MIC: > 128 µg/mL
P. aeruginosa ATCC 35151
  MIC: 8 to 16 µg/mL (≈ 12.5 to 24.9 µM)
E. coli AG100
  MIC: > 128 µg/mL
K. pneumoniae UMM
  MIC: > 128 µg/mL
[2]
  pEC50: > 5.00
E. coli D22
  MIC: 8 to 16 µg/mL (≈ 12.5 to 24.9 µM)
E. coli ATCC 25922
  MIC: > 128 µg/mL
P. aeruginosa ATCC 27853
  MIC: > 128 µg/mL
E. coli AG100A
  MIC: 8 to 16 µg/mL (≈ 12.5 to 24.9 µM)
E. coli 901C
  MIC: < 1 µg/mL
K. pneumoniae SI-117
  MIC: > 128 µg/mL

## CS(=O)(=O)N1CCN(C(=O)N[C@@H](C(=O)N[C@H]2Cc3cccc(C(=O)O)c3OB2O)c2ccc(P(=O)(O)O)cc2)C1=O (single isomer, unassigned) [Example 6]
K. pneumoniae 848844
  MIC: > 128 µg/mL
[1]
  MIC: 8 to 16 µg/mL (≈ 13.1 to 26.2 µM)
A. baumannii ATCC 19606
  MIC: 8 to 16 µg/mL (≈ 13.1 to 26.2 µM)
P. aeruginosa ATCC 35151
  MIC: < 1 µg/mL
E. coli AG100
  MIC: 8 to 16 µg/mL (≈ 13.1 to 26.2 µM)
K. pneumoniae UMM
  MIC: 32 to 64 µg/mL (≈ 52.4 to 105 µM)
[2]
  pEC50: > 5.00
E. coli D22
  MIC: 2 to 4 µg/mL (≈ 3.28 to 6.55 µM)
E. coli ATCC 25922
  MIC: 32 to 64 µg/mL (≈ 52.4 to 105 µM)
P. aeruginosa ATCC 27853
  MIC: > 128 µg/mL
E. coli AG100A
  MIC: 8 to 16 µg/mL (≈ 13.1 to 26.2 µM)
E. coli 901C
  MIC: < 1 µg/mL
K. pneumoniae SI-117
  MIC: > 128 µg/mL

## CCN1CCN(C(=O)NC(C(=O)N[C@H]2Cc3cccc(C(=O)O)c3OB2O)c2ccc(P(=O)(O)O)cc2F)C(=O)C1=O (stereo partly drawn) [Example 1, (3R)-3-(2-(4-ethyl-2,3-dioxopiperazine-1-carboxamido)-2-(2-fluoro-4-phosphonophenyl)acetamido)-2-hydroxy-3,4-dihydro-2H-benzo[e][1,2]oxaborinine-8-carboxylic acid]
K. pneumoniae 848844
  MIC: > 128 µg/mL
[1]
  MIC: 32 to 64 µg/mL (≈ 52.8 to 106 µM)
A. baumannii ATCC 19606
  MIC: 32 to 64 µg/mL (≈ 52.8 to 106 µM)
P. aeruginosa ATCC 35151
  MIC: < 1 µg/mL
E. coli AG100
  MIC: 32 to 64 µg/mL (≈ 52.8 to 106 µM)
K. pneumoniae UMM
  MIC: 32 to 64 µg/mL (≈ 52.8 to 106 µM)
[2]
  pEC50: > 5.00
E. coli D22
  MIC: 2 to 4 µg/mL (≈ 3.3 to 6.6 µM)
E. coli ATCC 25922
  MIC: > 128 µg/mL
P. aeruginosa ATCC 27853
  MIC: > 128 µg/mL
E. coli AG100A
  MIC: 8 to 16 µg/mL (≈ 13.2 to 26.4 µM)
E. coli 901C
  MIC: < 1 µg/mL
K. pneumoniae SI-117
  MIC: > 128 µg/mL

## NCCN1CCN(C(=O)NC(C(=O)N[C@H]2Cc3cccc(C(=O)O)c3OB2O)c2ccc(P(=O)(O)O)cc2)C(=O)C1=O (stereo partly drawn) [Example 3, (3R)-3-(2-(4-(2-aminoethyl)-2,3-dioxopiperazine-1-carboxamido)-2-(4-phosphonophenyl)acetamido)-2-hydroxy-3,4-dihydro-2H-benzo[e][1,2]oxaborinine-8-carboxylic acid]
K. pneumoniae 848844
  MIC: > 128 µg/mL
[1]
  MIC: 32 to 64 µg/mL (≈ 53 to 106 µM)
A. baumannii ATCC 19606
  MIC: 32 to 64 µg/mL (≈ 53 to 106 µM)
P. aeruginosa ATCC 35151
  MIC: < 1 µg/mL
E. coli AG100
  MIC: 32 to 64 µg/mL (≈ 53 to 106 µM)
K. pneumoniae UMM
  MIC: 32 to 64 µg/mL (≈ 53 to 106 µM)
[2]
  pEC50: > 5.00
E. coli D22
  MIC: 8 to 16 µg/mL (≈ 13.3 to 26.5 µM)
E. coli ATCC 25922
  MIC: 32 to 64 µg/mL (≈ 53 to 106 µM)
P. aeruginosa ATCC 27853
  MIC: > 128 µg/mL
E. coli AG100A
  MIC: 8 to 16 µg/mL (≈ 13.3 to 26.5 µM)
E. coli 901C
  MIC: 2 to 4 µg/mL (≈ 3.32 to 6.63 µM)
K. pneumoniae SI-117
  MIC: > 128 µg/mL

## CCN1CCN(C(=O)NC(C(=O)N[C@H]2Cc3cccc(C(=O)O)c3OB2O)c2cc(P(=O)(O)O)ccc2F)C(=O)C1=O (stereo partly drawn) [Example 2, (3R)-3-(2-(4-ethyl-2,3-dioxopiperazine-1-carboxamido)-2-(2-fluoro-5-phosphonophenyl)acetamido)-2-hydroxy-3,4-dihydro-2H-benzo[e][1,2]oxaborinine-8-carboxylic acid]
K. pneumoniae 848844
  MIC: > 128 µg/mL
[1]
  MIC: 8 to 16 µg/mL (≈ 13.2 to 26.4 µM)
A. baumannii ATCC 19606
  MIC: > 128 µg/mL
P. aeruginosa ATCC 35151
  MIC: < 1 µg/mL
E. coli AG100
  MIC: 32 to 64 µg/mL (≈ 52.8 to 106 µM)
K. pneumoniae UMM
  MIC: 32 to 64 µg/mL (≈ 52.8 to 106 µM)
[2]
  pEC50: > 5.00
E. coli D22
  MIC: 2 to 4 µg/mL (≈ 3.3 to 6.6 µM)
E. coli ATCC 25922
  MIC: > 128 µg/mL
P. aeruginosa ATCC 27853
  MIC: > 128 µg/mL
E. coli AG100A
  MIC: 32 to 64 µg/mL (≈ 52.8 to 106 µM)
E. coli 901C
  MIC: < 1 µg/mL
K. pneumoniae SI-117
  MIC: > 128 µg/mL

## CS(=O)(=O)N1CCN(C(=O)N[C@H](C(=O)N[C@H]2Cc3cccc(C(=O)O)c3OB2O)c2ccc(P(=O)(O)O)cc2)C1=O (single isomer, unassigned) [Example 5]
K. pneumoniae 848844
  MIC: > 128 µg/mL
[1]
  MIC: 32 to 64 µg/mL (≈ 52.4 to 105 µM)
A. baumannii ATCC 19606
  MIC: > 128 µg/mL
P. aeruginosa ATCC 35151
  MIC: 8 to 16 µg/mL (≈ 13.1 to 26.2 µM)
E. coli AG100
  MIC: 32 to 64 µg/mL (≈ 52.4 to 105 µM)
K. pneumoniae UMM
  MIC: > 128 µg/mL
[2]
  pEC50: > 5.00
E. coli D22
  MIC: 8 to 16 µg/mL (≈ 13.1 to 26.2 µM)
E. coli ATCC 25922
  MIC: > 128 µg/mL
P. aeruginosa ATCC 27853
  MIC: > 128 µg/mL
E. coli AG100A
  MIC: 32 to 64 µg/mL (≈ 52.4 to 105 µM)
E. coli 901C
  MIC: < 1 µg/mL
K. pneumoniae SI-117
  MIC: > 128 µg/mL
